Laboratory results: patent US5492822A, “Method for recovering purified 100,000 dalton molecular weight fraction of human pancreatic cholesterol esterase” (Lange, III; Louis G., priority 1995, dated 1996)
Each block holds one molecule with its values, some of them ahead of it.

Assays:
[1] = molecular target: T1, human pancreatic cholesterol esterase (100 kDa) (Homo sapiens, UniProt P19835); test: Triolein hydrolysis by human pancreatic cholesterol esterase (100 kDa); assay type: biochemical
T1 construct: from tissue; host or cells: human pancreas (autopsy)
T1 sequence (P19835 21-753): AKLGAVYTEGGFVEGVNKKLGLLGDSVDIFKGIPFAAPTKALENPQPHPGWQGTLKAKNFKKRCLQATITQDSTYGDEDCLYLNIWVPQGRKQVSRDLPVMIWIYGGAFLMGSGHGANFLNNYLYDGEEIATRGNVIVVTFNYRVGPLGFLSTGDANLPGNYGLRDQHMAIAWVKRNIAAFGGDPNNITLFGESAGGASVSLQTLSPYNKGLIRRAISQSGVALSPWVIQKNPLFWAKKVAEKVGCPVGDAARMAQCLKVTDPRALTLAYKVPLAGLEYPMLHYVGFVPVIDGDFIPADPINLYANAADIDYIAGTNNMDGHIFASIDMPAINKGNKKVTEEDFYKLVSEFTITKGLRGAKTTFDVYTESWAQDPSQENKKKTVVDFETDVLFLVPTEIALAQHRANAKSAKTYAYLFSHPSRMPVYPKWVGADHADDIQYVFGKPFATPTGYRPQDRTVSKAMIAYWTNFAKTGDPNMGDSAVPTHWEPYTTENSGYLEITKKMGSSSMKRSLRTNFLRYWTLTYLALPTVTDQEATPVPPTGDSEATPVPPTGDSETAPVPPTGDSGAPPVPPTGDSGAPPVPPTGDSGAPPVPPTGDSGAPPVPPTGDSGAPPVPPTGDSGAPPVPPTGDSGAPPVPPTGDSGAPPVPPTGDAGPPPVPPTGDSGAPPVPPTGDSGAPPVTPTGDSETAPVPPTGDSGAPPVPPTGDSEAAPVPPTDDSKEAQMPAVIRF
Source text: (§1) Human pancreatic cholesterol esterase (100 kDa) and human pancreatic triglyceride lipase (52 kDa) were purified to homogeneity (Examples 1 and 3), and their abilities to cleave triglycerides and cholesteryl esters were compared. […] Virtually the same results were found with cholesteryl esters; the 100 kDa enzyme cleaved cholesterol oleate at a rate at least 490-fold greater than that found for the 52 kDa triglyceride lipase.

[2] = molecular target: T2, human pancreatic triglyceride lipase (52 kDa) (Homo sapiens, UniProt P16233); test: Triolein hydrolysis by human pancreatic triglyceride lipase (52 kDa); assay type: biochemical
T2 sequence (P16233 17-465): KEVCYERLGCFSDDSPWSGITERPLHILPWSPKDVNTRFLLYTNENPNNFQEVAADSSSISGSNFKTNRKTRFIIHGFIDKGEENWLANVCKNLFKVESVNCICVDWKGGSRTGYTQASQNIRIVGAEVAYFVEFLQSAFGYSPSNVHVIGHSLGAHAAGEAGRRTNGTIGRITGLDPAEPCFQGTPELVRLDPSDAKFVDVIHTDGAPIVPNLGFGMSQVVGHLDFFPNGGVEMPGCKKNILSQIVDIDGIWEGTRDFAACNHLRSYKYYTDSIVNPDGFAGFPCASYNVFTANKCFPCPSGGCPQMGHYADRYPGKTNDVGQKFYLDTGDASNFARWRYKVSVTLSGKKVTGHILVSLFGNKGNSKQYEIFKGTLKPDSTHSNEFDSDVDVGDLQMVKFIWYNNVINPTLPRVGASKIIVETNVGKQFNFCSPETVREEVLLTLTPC
Source text: as §1

[3] = molecular target: T3, human pancreatic cholesterol esterase (Homo sapiens, UniProt P19835); test: Binding of 125I-cholesterol esterase to small intestine vesicles and its displacement
T3 construct: from tissue; host or cells: human pancreas (autopsy)
T3 sequence (P19835 21-753): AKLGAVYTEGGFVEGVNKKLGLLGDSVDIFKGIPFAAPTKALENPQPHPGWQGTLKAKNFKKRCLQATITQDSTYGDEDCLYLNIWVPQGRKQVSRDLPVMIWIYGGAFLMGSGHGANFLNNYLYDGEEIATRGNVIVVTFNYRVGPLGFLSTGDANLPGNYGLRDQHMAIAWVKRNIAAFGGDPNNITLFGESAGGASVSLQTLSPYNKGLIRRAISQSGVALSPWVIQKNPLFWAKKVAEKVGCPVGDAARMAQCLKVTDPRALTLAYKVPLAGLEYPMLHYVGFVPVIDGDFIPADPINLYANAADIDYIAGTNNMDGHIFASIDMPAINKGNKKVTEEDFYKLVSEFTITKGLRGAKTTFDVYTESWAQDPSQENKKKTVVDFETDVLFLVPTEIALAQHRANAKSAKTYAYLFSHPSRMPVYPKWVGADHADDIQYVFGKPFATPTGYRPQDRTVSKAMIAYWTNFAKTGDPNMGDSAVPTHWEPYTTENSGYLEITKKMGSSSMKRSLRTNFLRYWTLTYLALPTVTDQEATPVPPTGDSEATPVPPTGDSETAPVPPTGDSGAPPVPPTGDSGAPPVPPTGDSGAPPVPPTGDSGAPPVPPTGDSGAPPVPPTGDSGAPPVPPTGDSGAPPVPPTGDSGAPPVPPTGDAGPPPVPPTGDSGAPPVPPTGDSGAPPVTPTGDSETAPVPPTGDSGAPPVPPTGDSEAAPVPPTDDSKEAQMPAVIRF
Experimental: (§2) Vesicles contained 1.0 mg protein/ml, 30 ug total cholesterol/mg protein and 50 ug endogenous heparin/mg protein. ^125 I-cholesterol esterase (100K or 67K form) was added (0 to 400 pmol; 2,000 dpm/pmol) to 100 ug of protein of small intestine vesicles in 10 mM Tris-Cl, pH 7.2 for 15 min. at 37°. The concentration of offered ^125 I-cholesterol esterase varied between 10 nM and 1 uM. Experiments were performed utilizing 1% blotto to decrease nonspecific protein binding to the vesicles. After the 15 minute incubation at 37°, the reaction was quenched and the assay mixtures were filtered through wells of a Millipore system containing 0.2 micron pore filters presoaked in buffer. The filtrate was-collected to assess free (unbound) enzyme, and the filters were then immediately washed with 15 ml of cold buffer and counted for ^125 I. Total binding was defined as ^125 I-dpm bound to filter paper minus ^125 I-dpm detected in the same reaction without vesicles (background). Nonspecific binding (radioactivity bound to the vesicles in the presence of excess cold ligand) was quantitated as the amount of ^125 I-cholesterol esterase binding in the presence of a 1000-fold molar excess of unlabeled cholesterol esterase as described above. Specific binding is defined as the difference between total bound dpm and nonspecific-bound dpm (converted to moles bound by dividing by the SRA).

[4] = tested on: human pancreatic cholesterol esterase; test: as above
Experimental: as §2

[5] = molecular target: T3, human pancreatic cholesterol esterase; test: Elution of human pancreatic cholesterol esterase bound to heparin immobilized on Sepharose; assay type: binding; details: 5 mg/ml chondroitin sulfate
[6] = tested on: small intestine membrane vesicles (membrane-bound heparin); test: Binding of 125I-labeled bovine pancreatic enzymes to small intestine membrane vesicles; details: 125I-labeled bovine pancreatic enzyme, 1% Blotto
Experimental: as §2, with “Exogenous heparin inhibits the interaction and binding of pancreatic choleserol esterase to small intestine vesicles prepared from proximal small intestine segments homogenized in 10 mM Tris-Cl, pH 7.2, and centrifuged at 48,000 X g for 45 minutes. Vesicles” for “Vesicles”, “After the 15 minute incubation at 37°, the reaction was quenched and the assay mixtures were filtered through wells of a Millipore system containing 0.2 micron pore filters presoaked in buffer.” left out, “Specific binding is defined as the difference between total bound dpm and nonspecific-bound dpm (converted to moles bound by dividing by the SRA).” left out

[7] = Cholesterol ester synthesis versus hydrolysis by the 52K form; assay type: biochemical, human
Experimental: Human pancreatic cholesterol esterase (52K form) can be isolated as follows. Cytosol prepared as above from 30 g pancreas is dialyzed versus 10 mM Tris-Cl, 50 mM benzamidine, pH 8.2 and then chromatographed over DEAE cellulose (2.6×25 cm). Unlike the higher molecular weight forms of cholesterol esterase which bind under these conditions, the 52K species rapidly passes through DEAE cellulose at pH 8.2, with a 40-fold purification and 80% yield. Subsequent chromatography over hydroxylapatite and heparin-Sepharose yields a homogeneous protein (SDS-PAGE, M.W.=52K) with enzymatic activity expressed principally in the synthetic direction for cholesterol esters (rate of synthesis/rate of hydrolysis=10/1). This species also cross-reacts in western blotting to anti-cholesterol esterase antibodies.

CaCo cells = test: Cellular uptake of [14C]oleate from [14C]triolein; assay type: cell-based; details: at eight hours
Experimental: Confluent monolayers of 2×10^6 CaCo cells (Example 5b) were incubated with 2 mM taurocholate and with [^14 C]triolein (5 uM) embedded in phosphatidylcholine vesicles. In the absence of triglyceride lipase, cellular uptake of [^14 C] oleate was linear and at eight hours was 204 pmol. In the presence of human triglyceride lipase (25 nM) and colipase (400 nM), uptake was brisk, reaching 706 pmol at eight hours. Moreover, enzyme-mediated uptake was also dependent on the presence of colipase in the medium, since uptake was only 229 pmol at eight hours in its absence. Heparin (400 uM) added to medium containing triglyceride lipase and colipase reduced uptake from 706 pmol to 329 pmol at eight hours. Thus, heparin decreased cellular uptake of oleate (oleic acid) from cleaved triglyceride by 75%.

Molecule: [Cl-].[Na+] [NaCl, reference compound]
effect on triolein hydrolysis by the 100 kDa esterase ([1]; 0.15 M NaCl): unaffected | inhibition of triolein hydrolysis by the 52 kDa enzyme ([2]; 0.15 M NaCl): 68% | displacement of cholesterol esterase from vesicles ([3]; 150 mM NaCl): ineffective | effect on specific binding of 125I-cholesterol esterase to vesicles ([4]; isotonic saline): no effect

elution of bound enzyme from heparin-Sepharose [5]: completely ineffective | displacement of cholesterol esterase from vesicles ([3]; 10 mg/ml chondroitin sulfate): ineffective | decrease of specific binding of 125I-cholesterol esterase to vesicles ([4]; 0.5 to 100-fold molar excesses): less than 10%
Molecule: chondroitin sulfate

binding to small intestine membrane vesicles / membrane-bound heparin [6]: do not bind
Molecule: phospholipase A2: bovine pancreatic phospholipase A2 radiolabeled with Na125I

rate of triolein hydrolysis ([2]; homogeneous 52 kDa enzyme): 27 nmol/hr/g pancreas
B1: Human pancreatic cholesterol esterase (52K form): 52K protein isolated as in Example 3; called triglyceride lipase in Example 10 (protein, UniProt P16233 17-465, looked up)
Pancreatic triacylglycerol …: KEVCYERLGCFSDDSPWSGITERPLHILPWSPKDVNTRFLLYTNENPNNFQEVAADSSSISGSNFKTNRKTRFIIHGFIDKGEENWLANVCKNLFKVESVNCICVDWKGGSRTGYTQASQNIRIVGAEVAYFVEFLQSAFGYSPSNVHVIGHSLGAHAAGEAGRRTNGTIGRITGLDPAEPCFQGTPELVRLDPSDAKFVDVIHTDGAPIVPNLGFGMSQVVGHLDFFPNGGVEMPGCKKNILSQIVDIDGIWEGTRDFAACNHLRSYKYYTDSIVNPDGFAGFPCASYNVFTANKCFPCPSGGCPQMGHYADRYPGKTNDVGQKFYLDTGDASNFARWRYKVSVTLSGKKVTGHILVSLFGNKGNSKQYEIFKGTLKPDSTHSNEFDSDVDVGDLQMVKFIWYNNVINPTLPRVGASKIIVETNVGKQFNFCSPETVREEVLLTLTPC
rate of synthesis/rate of hydrolysis of cholesterol esters [7]: 10/1 | cellular uptake of [14C]oleate (CaCo cells; human triglyceride lipase 25 nM and colipase 400 nM): 706 pmol | cellular uptake of [14C]oleate (CaCo cells; triglyceride lipase in the absence of colipase): 229 pmol

effect on triolein hydrolysis by the 100 kDa esterase ([1]; 50-fold molar excess of colipase): unaffected | stimulation of triolein hydrolysis by the 52 kDa enzyme ([2]; 10-fold excess of colipase): 375%
B2: colipase: cofactor protein added to triglyceride lipase (protein, UniProt P04118 23-112, looked up)
Colipase: GIIINLENGELCMNSAQCKSNCCQHSSALGLARCTSMASENSECSVKTLYGIYYKCPCERGLTCEGDKTIVGSITNTNFGICHDAGRSKQ
